Results taken from PubChem BioAssay AID330 (DTP/NCI, 2004).
Several values for one entry are separate records, joined by “and”; a condition that tells them apart may be missing. Equal entries are not always repeated. Toxic doses and inconclusive results are not listed.

Tested on: P388 leukemia ip, CD2F1 mice, survival T/C
Assay: NCI In Vivo Anticancer Drug Screen. Data for tumor model P388 Leukemia (intraperitoneal) in CD2F1 (CDF1) mice
Details: endpoint: median survival time, higher = longer survival
How it was run: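 Mice carrying the transplanted tumor received test compound or vehicle. Survival was recorded in each group, and the value is the treated-group measurement divided by that of the vehicle-treated control group.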

[1] = dose: 60.0 mg/kg/injection, schedule: Q01DX005 (ip), vehicle: saline
[2] = dose: 60.0 mg/kg/injection, schedule: Q01DX005 (ip), vehicle: saline with Tween-80
[3] = dose: 120.0 mg/kg/injection, schedule: Q01DX005 (ip), vehicle: saline with Tween-80
[4] = dose: 240.0 mg/kg/injection, schedule: Q01DX005 (ip), vehicle: saline with Tween-80
[5] = dose: 12.5 mg/kg/injection, schedule: Q01DX005 (ip), vehicle: Klucel (hydroxypropylcellulose) (HPC)
[6] = dose: 25.0 mg/kg/injection, schedule: Q01DX005 (ip), vehicle: Klucel (hydroxypropylcellulose) (HPC)
[7] = dose: 50.0 mg/kg/injection, schedule: Q01DX005 (ip), vehicle: Klucel (hydroxypropylcellulose) (HPC)
[8] = dose: 100.0 mg/kg/injection, schedule: Q01DX005 (ip), vehicle: Klucel (hydroxypropylcellulose) (HPC)
[9] = dose: 50.0 mg/kg/injection, schedule: Q01DX009 (ip), vehicle: saline with Tween-80
[10] = dose: 100.0 mg/kg/injection, schedule: Q01DX009 (ip), vehicle: saline with Tween-80
[11] = dose: 50.0 mg/kg/injection, schedule: Q01DX009 (ip), vehicle: Klucel (hydroxypropylcellulose) (HPC)
[12] = dose: 6.25 mg/kg/injection, schedule: Q01DX005 (ip), vehicle: Klucel (hydroxypropylcellulose) (HPC)

O=c1ccncn1C1OC(CO)C(O)C1O (centres undefined)
T/C [1]: 103 % of control | T/C (dose: 120.0 mg/kg/injection, schedule: Q01DX005 (ip), vehicle: saline): 102 % of control | T/C (dose: 240.0 mg/kg/injection, schedule: Q01DX005 (ip), vehicle: saline): 110 % of control

CC(C)C12CCC(=O)C=C1CCCC2O (centres undefined)
T/C (dose: 100.0 mg/kg/injection, schedule: Q01DX009 (ip), vehicle: saline sonified): 90 % of control | T/C (dose: 200.0 mg/kg/injection, schedule: Q01DX009 (ip), vehicle: saline sonified): 100 % of control | T/C (dose: 400.0 mg/kg/injection, schedule: Q01DX009 (ip), vehicle: saline sonified): 109 % of control

CC(=O)Oc1ccc2c(c1)C(=O)CCCCC(=O)O2
T/C (dose: 100.0 mg/kg/injection, schedule: Q04DX002 (ip), vehicle: Klucel (hydroxypropylcellulose) (HPC)): 106 % of control | T/C (dose: 200.0 mg/kg/injection, schedule: Q04DX002 (ip), vehicle: Klucel (hydroxypropylcellulose) (HPC)): 116 % of control | T/C (dose: 400.0 mg/kg/injection, schedule: Q04DX002 (ip), vehicle: Klucel (hydroxypropylcellulose) (HPC)): 106 % of control

COc1ccc2c(O)c(S(=O)(=O)c3ccc(Cl)cc3)c(=O)oc2c1
T/C [2]: 102 % of control | T/C [3]: 112 % of control | T/C [4]: 102 % of control

CCCCN(CCCC)CCNc1ccc(C)c2sc3cc(Cl)ccc3c(=O)c12
T/C [5]: 95 % of control | T/C [6]: 101 % of control | T/C [7]: 99 % of control and 101 % of control | T/C [8]: 96 % of control

N#Cc1ccc(OC(=O)Nc2ccccc2Cl)cc1
T/C [2]: 94 % of control | T/C [3]: 95 % of control | T/C [4]: 86 % of control

CCC[CH2][Sn]([CH2]CCC)([CH2]CCN(C)C)[CH2]CCN(C)C
T/C [9]: 97 % of control | T/C [10]: 104 % of control

COc1cc2cnc(-c3ccncc3)c(N)c2cc1OC
T/C (dose: 100.0 mg/kg/injection, schedule: Q04DX003 (ip), vehicle: suspension in saline): 100 % of control | T/C (dose: 200.0 mg/kg/injection, schedule: Q04DX003 (ip), vehicle: suspension in saline): 93 % of control | T/C (dose: 400.0 mg/kg/injection, schedule: Q04DX003 (ip), vehicle: suspension in saline): 89 % of control

O=C1CCNC(=O)N1OS(=O)(=O)c1ccccc1
T/C [11]: 86 % of control

C1CN1P1(N2CC2)=NP(N2CC2)(N2CC2)=NP(N2CC2)(N2CC2)=N1
T/C (dose: 5.0 mg/kg/injection, schedule: Q01DX009 (ip), vehicle: saline): 231 % of control | T/C (dose: 10.0 mg/kg/injection, schedule: Q01DX009 (ip), vehicle: saline): 222 % of control | T/C (dose: 20.0 mg/kg/injection, schedule: Q01DX009 (ip), vehicle: saline): 122 % of control

Cn1c2c(c3nc(N)nc(N)c3c1=O)CCc1ccccc1-2
T/C (dose: 25.0 mg/kg/injection, schedule: Q01DX005 (ip), vehicle: distilled water + alcohol): 102 % of control | T/C (dose: 50.0 mg/kg/injection, schedule: Q01DX005 (ip), vehicle: distilled water + alcohol): 96 % of control | T/C (dose: 100.0 mg/kg/injection, schedule: Q01DX005 (ip), vehicle: distilled water + alcohol): 94 % of control | T/C (dose: 200.0 mg/kg/injection, schedule: Q01DX005 (ip), vehicle: distilled water + alcohol): 103 % of control

C=CCCn1nnc(-c2ccccc2)n1
T/C (dose: 25.0 mg/kg/injection, schedule: Q04DX003 (ip), vehicle: saline with Tween-80): 102 % of control | T/C (dose: 50.0 mg/kg/injection, schedule: Q04DX003 (ip), vehicle: saline with Tween-80): 96 % of control | T/C (dose: 100.0 mg/kg/injection, schedule: Q04DX003 (ip), vehicle: saline with Tween-80): 100 % of control | T/C (dose: 200.0 mg/kg/injection, schedule: Q04DX003 (ip), vehicle: saline with Tween-80): 104 % of control and 105 % of control | T/C (dose: 400.0 mg/kg/injection, schedule: Q04DX003 (ip), vehicle: saline with Tween-80): 94 % of control

NCCN.O=S(=O)([O-])[O-].[Cu+2].[OH3+].[OH3+]
T/C (dose: 6.25 mg/kg/injection, schedule: Q04DX002 (ip), vehicle: saline): 100 % of control | T/C (dose: 12.5 mg/kg/injection, schedule: Q04DX002 (ip), vehicle: saline): 100 % of control | T/C (dose: 25.0 mg/kg/injection, schedule: Q04DX002 (ip), vehicle: saline): 100 % of control

CCCCCCC(/C=C/c1ccc(Cl)c(Cl)c1)=N\Nc1ccccc1
T/C (dose: 6.25 mg/kg/injection, schedule: Q01DX009 (ip), vehicle: saline with Tween-80): 103 % of control | T/C (dose: 12.5 mg/kg/injection, schedule: Q01DX009 (ip), vehicle: saline with Tween-80): 97 % of control | T/C (dose: 25.0 mg/kg/injection, schedule: Q01DX009 (ip), vehicle: saline with Tween-80): 103 % of control | T/C [9]: 100 % of control

c1ccc(-c2c[s+]cs2)cc1
T/C (dose: 6.25 mg/kg/injection, schedule: Q01DX009 (ip), vehicle: distilled water + Tween-80): 111 % of control | T/C (dose: 12.5 mg/kg/injection, schedule: Q01DX009 (ip), vehicle: distilled water + Tween-80): 107 % of control and 114 % of control | T/C (dose: 25.0 mg/kg/injection, schedule: Q01DX009 (ip), vehicle: distilled water + Tween-80): 121 % of control and 123 % of control | T/C (dose: 50.0 mg/kg/injection, schedule: Q01DX009 (ip), vehicle: distilled water + Tween-80): 104 % of control | T/C (dose: 100.0 mg/kg/injection, schedule: Q01DX009 (ip), vehicle: distilled water + Tween-80): 114 % of control

COc1ccc2c(N/N=C/c3ccc4c(c3)OCO4)cc(C)nc2c1
T/C (dose: 1.5 mg/kg/injection, schedule: Q01DX005 (ip), vehicle: Klucel (hydroxypropylcellulose) (HPC)): 95 % of control | T/C (dose: 3.0 mg/kg/injection, schedule: Q01DX005 (ip), vehicle: Klucel (hydroxypropylcellulose) (HPC)): 93 % of control | T/C (dose: 6.0 mg/kg/injection, schedule: Q01DX005 (ip), vehicle: Klucel (hydroxypropylcellulose) (HPC)): 95 % of control | T/C [12]: 88 % of control | T/C [5]: 107 % of control | T/C [6]: 88 % of control

c1ccc2c3c([nH]c2c1)CN1CCCCC1C3 (centres undefined)
T/C [12]: 92 % of control | T/C [5]: 92 % of control | T/C [6]: 93 % of control | T/C [7]: 99 % of control | T/C [8]: 96 % of control | T/C (dose: 200.0 mg/kg/injection, schedule: Q01DX005 (ip), vehicle: Klucel (hydroxypropylcellulose) (HPC)): 112 % of control

CC(C)(C)OC(=O)N1CCc2c([nH]oc2=O)C1
T/C (dose: 50.0 mg/kg/injection, schedule: Q01DX009 (ip), vehicle: suspension in saline): 92 % of control | T/C (dose: 100.0 mg/kg/injection, schedule: Q01DX009 (ip), vehicle: suspension in saline): 90 % of control | T/C (dose: 200.0 mg/kg/injection, schedule: Q01DX009 (ip), vehicle: suspension in saline): 90 % of control

COc1cc2cnc(-c3ccc(Cl)c(Cl)c3)c(O)c2cc1OC
T/C (dose: 50.0 mg/kg/injection, schedule: Q01DX009 (ip), vehicle: saline): 90 % of control | T/C (dose: 100.0 mg/kg/injection, schedule: Q01DX009 (ip), vehicle: saline): 102 % of control | T/C (dose: 200.0 mg/kg/injection, schedule: Q01DX009 (ip), vehicle: saline): 90 % of control

Cc1ccc2nc(C)cc(N=[N+]=[N-])c2c1
T/C [2]: 95 % of control | T/C [3]: 89 % of control

COc1ccc([N+](=O)[O-])cc1NS(=O)(=O)c1ccc(NC(C)=O)cc1
T/C [11]: 100 % of control | T/C (dose: 100.0 mg/kg/injection, schedule: Q01DX009 (ip), vehicle: Klucel (hydroxypropylcellulose) (HPC)): 99 % of control | T/C (dose: 200.0 mg/kg/injection, schedule: Q01DX009 (ip), vehicle: Klucel (hydroxypropylcellulose) (HPC)): 99 % of control

Cc1ccc(S(=O)(=O)CC(=O)CC(=O)C(=O)Nc2cc(C)ccc2C)cc1
T/C [2]: 105 % of control | T/C [3]: 108 % of control | T/C [4]: 106 % of control

c1csc(-c2cc(-c3cc(-c4cccs4)[nH]n3)n[nH]2)c1
T/C (dose: 60.0 mg/kg/injection, schedule: Q01DX005 (ip), vehicle: Klucel (hydroxypropylcellulose) (HPC)): 102 % of control | T/C (dose: 120.0 mg/kg/injection, schedule: Q01DX005 (ip), vehicle: Klucel (hydroxypropylcellulose) (HPC)): 96 % of control | T/C (dose: 240.0 mg/kg/injection, schedule: Q01DX005 (ip), vehicle: Klucel (hydroxypropylcellulose) (HPC)): 90 % of control

O=C1Nc2ccccc2C1=O
T/C [9]: 100 % of control | T/C [10]: 101 % of control | T/C (dose: 200.0 mg/kg/injection, schedule: Q01DX009 (ip), vehicle: saline with Tween-80): 105 % of control

C[Si](C)(C)CNCc1ccccc1
T/C (dose: 15.0 mg/kg/injection, schedule: Q01DX005 (ip), vehicle: saline): 108 % of control | T/C (dose: 30.0 mg/kg/injection, schedule: Q01DX005 (ip), vehicle: saline): 105 % of control | T/C [1]: 102 % of control and 97 % of control
